According to PubChem BioAssay (NCI):
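In this assay, cells in 96-well plates receive the compound at five concentrations for 48 hours. Endpoints are linearly interpolated between the surrounding concentrations. The concentration for full growth arrest is given as TGI.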

How the values were obtained:
Experiment in all cases: NCI tumour cell line growth inhibition, 48 h
SR leukemia = test system: SR leukemia
MDA-MB-231 breast = test system: MDA-MB-231 breast
COLO 205 colon = test system: COLO 205 colon
UACC-62 melanoma = test system: UACC-62 melanoma
OVCAR-4 ovarian = test system: OVCAR-4 ovarian
TK-10 renal = test system: TK-10 renal
T-47D breast = test system: T-47D breast
786-0 renal = test system: 786-0 renal
MOLT-4 leukemia = test system: MOLT-4 leukemia
SF-539 CNS = test system: SF-539 CNS
UO-31 renal = test system: UO-31 renal
CAKI-1 renal = test system: CAKI-1 renal
NCI-H23 lung = test system: NCI-H23 lung
HOP-62 NSCLC = test system: HOP-62 NSCLC
SK-MEL-28 melanoma = test system: SK-MEL-28 melanoma
NCI-H226 lung = test system: NCI-H226 lung
M14 melanoma = test system: M14 melanoma
SW-620 colon = test system: SW-620 colon
OVCAR-3 ovarian = test system: OVCAR-3 ovarian
NCI-H460 lung = test system: NCI-H460 lung
HCT-116 colon = test system: HCT-116 colon
SK-MEL-5 melanoma = test system: SK-MEL-5 melanoma
SK-OV-3 ovarian = test system: SK-OV-3 ovarian
SK-MEL-2 melanoma = test system: SK-MEL-2 melanoma
HOP-92 NSCLC = test system: HOP-92 NSCLC
SN12C renal = test system: SN12C renal
KM12 colon = test system: KM12 colon
HCC-2998 colon = test system: HCC-2998 colon
HT29 colon = test system: HT29 colon
K-562 leukemia = test system: K-562 leukemia
RXF 393 renal = test system: RXF 393 renal
LOX IMVI melanoma = test system: LOX IMVI melanoma
OVCAR-8 ovarian = test system: OVCAR-8 ovarian
MALME-3M melanoma = test system: MALME-3M melanoma
MDA-MB-435 = test system: MDA-MB-435
A498 renal = test system: A498 renal
HL-60(TB) leukemia = test system: HL-60(TB) leukemia
NCI/ADR-RES ovarian = test system: NCI/ADR-RES ovarian
CCRF-CEM leukemia = test system: CCRF-CEM leukemia
RPMI-8226 leukemia = test system: RPMI-8226 leukemia
U251 CNS = test system: U251 CNS
NCI-H522 lung = test system: NCI-H522 lung
SF-268 CNS = test system: SF-268 CNS
HCT-15 colon = test system: HCT-15 colon
ACHN renal = test system: ACHN renal
SNB-75 CNS = test system: SNB-75 CNS
OVCAR-5 ovarian = test system: OVCAR-5 ovarian
HS 578T breast = test system: HS 578T breast
EKVX NSCLC = test system: EKVX NSCLC
SNB-19 CNS = test system: SNB-19 CNS
BT-549 breast = test system: BT-549 breast
PC-3 prostate = test system: PC-3 prostate
MDA-N = test system: MDA-N
UACC-257 melanoma = test system: UACC-257 melanoma
DU-145 prostate = test system: DU-145 prostate
SF-295 CNS = test system: SF-295 CNS
IGROV1 ovarian = test system: IGROV1 ovarian
A549 NSCLC = test system: A549 NSCLC
MCF7 breast = test system: MCF7 breast
KM20L2 colon = test system: KM20L2 colon
DMS 114 small cell lung = test system: DMS 114 small cell lung
DLD-1 colon = test system: DLD-1 colon
HOP-18 NSCLC = test system: HOP-18 NSCLC
DMS 273 small cell lung = test system: DMS 273 small cell lung
SNB-78 CNS = test system: SNB-78 CNS
LXFL 529 NSCLC = test system: LXFL 529 NSCLC
M19-MEL melanoma = test system: M19-MEL melanoma

With `NC(=O)C[C@H](NC(=O)C1(NC(=O)[C@H](Cc2ccc(CP(=O)(O)O)cc2)NC(=O)C(=O)O)CCCCC1)C(=O)NCCCc1cccc2ccccc12` the TGI (SR leukemia) was 7.86 µM, the TGI (MDA-MB-231 breast) was over 10 µM and the TGI (COLO 205 colon) was over 10 µM. It also gave a TGI (UACC-62 melanoma) of over 10 µM, a TGI (OVCAR-4 ovarian) of over 10 µM and a TGI (TK-10 renal) of over 10 µM. The TGI (T-47D breast) was over 10 µM, the TGI (786-0 renal) was over 10 µM and the TGI (MOLT-4 leukemia) was over 10 µM. It also gave a TGI (SF-539 CNS) of over 10 µM, a TGI (UO-31 renal) of over 10 µM and a TGI (CAKI-1 renal) of over 10 µM. For the same compound, the TGI (NCI-H23 lung) was over 10 µM, the TGI (HOP-62 NSCLC) was over 10 µM and the TGI (SK-MEL-28 melanoma) was over 10 µM. The TGI (NCI-H226 lung) was over 10 µM, the TGI (M14 melanoma) was over 10 µM and the TGI (SW-620 colon) was over 10 µM. For the same compound, the TGI (OVCAR-3 ovarian) was over 10 µM, the TGI (NCI-H460 lung) was over 10 µM and the TGI (HCT-116 colon) was over 10 µM. It also gave a TGI (SK-MEL-5 melanoma) of over 10 µM, a TGI (SK-OV-3 ovarian) of over 10 µM and a TGI (SK-MEL-2 melanoma) of over 10 µM. It also gave a TGI (HOP-92 NSCLC) of over 10 µM, a TGI (SN12C renal) of over 10 µM and a TGI (KM12 colon) of over 10 µM. For the same compound, the TGI (HCC-2998 colon) was over 10 µM, the TGI (HT29 colon) was over 10 µM and the TGI (K-562 leukemia) was over 10 µM. For the same compound, the TGI (RXF 393 renal) was over 10 µM, the TGI (LOX IMVI melanoma) was over 10 µM and the TGI (OVCAR-8 ovarian) was over 10 µM. The TGI (MALME-3M melanoma) was over 10 µM, the TGI (MDA-MB-435) was over 10 µM and the TGI (A498 renal) was over 10 µM. For the same compound, the TGI (HL-60(TB) leukemia) was over 10 µM, the TGI (NCI/ADR-RES ovarian) was over 10 µM and the TGI (CCRF-CEM leukemia) was over 10 µM. For the same compound, the TGI (RPMI-8226 leukemia) was over 10 µM, the TGI (U251 CNS) was over 10 µM and the TGI (NCI-H522 lung) was over 10 µM. The TGI (SF-268 CNS) was over 10 µM, the TGI (HCT-15 colon) was over 10 µM and the TGI (ACHN renal) was over 10 µM. The TGI (SNB-75 CNS) was over 10 µM, the TGI (OVCAR-5 ovarian) was over 10 µM and the TGI (HS 578T breast) was over 10 µM. For the same compound, the TGI (EKVX NSCLC) was over 10 µM, the TGI (SNB-19 CNS) was over 10 µM and the TGI (BT-549 breast) was over 10 µM. For the same compound, the TGI (PC-3 prostate) was over 10 µM, the TGI (MDA-N) was over 10 µM and the TGI (UACC-257 melanoma) was over 10 µM. The TGI (DU-145 prostate) was over 10 µM, the TGI (SF-295 CNS) was over 10 µM and the TGI (IGROV1 ovarian) was over 10 µM. For the same compound, the TGI (A549 NSCLC) was over 10 µM and the TGI (MCF7 breast) was over 10 µM.
`O=[P+](O)c1cc2ccccc2c2ccccc12` gave a TGI (COLO 205 colon) of over 100 µM, a TGI (UACC-62 melanoma) of over 100 µM and a TGI (OVCAR-4 ovarian) of over 100 µM. The TGI (KM20L2 colon) was over 100 µM, the TGI (TK-10 renal) was over 100 µM and the TGI (786-0 renal) was over 100 µM. It also gave a TGI (MOLT-4 leukemia) of over 100 µM, a TGI (DMS 114 small cell lung) of over 100 µM and a TGI (SF-539 CNS) of over 100 µM. It also gave a TGI (NCI-H23 lung) of over 100 µM, a TGI (HOP-62 NSCLC) of over 100 µM and a TGI (SK-MEL-28 melanoma) of over 100 µM. For the same compound, the TGI (NCI-H226 lung) was over 100 µM, the TGI (M14 melanoma) was over 100 µM and the TGI (SW-620 colon) was over 100 µM. For the same compound, the TGI (DLD-1 colon) was over 100 µM, the TGI (HOP-18 NSCLC) was over 100 µM and the TGI (OVCAR-3 ovarian) was over 100 µM. For the same compound, the TGI (NCI-H460 lung) was over 100 µM, the TGI (HCT-116 colon) was over 100 µM and the TGI (SK-MEL-5 melanoma) was over 100 µM. The TGI (SK-OV-3 ovarian) was over 100 µM, the TGI (DMS 273 small cell lung) was over 100 µM and the TGI (SN12C renal) was over 100 µM. For the same compound, the TGI (KM12 colon) was over 100 µM, the TGI (HCC-2998 colon) was over 100 µM and the TGI (HT29 colon) was over 100 µM. It also gave a TGI (K-562 leukemia) of over 100 µM, a TGI (RXF 393 renal) of over 100 µM and a TGI (LOX IMVI melanoma) of over 100 µM. It also gave a TGI (OVCAR-8 ovarian) of over 100 µM, a TGI (SNB-78 CNS) of over 100 µM and a TGI (HL-60(TB) leukemia) of over 100 µM. For the same compound, the TGI (CCRF-CEM leukemia) was over 100 µM, the TGI (RPMI-8226 leukemia) was over 100 µM and the TGI (U251 CNS) was over 100 µM. The TGI (NCI-H522 lung) was over 100 µM, the TGI (SF-268 CNS) was over 100 µM and the TGI (LXFL 529 NSCLC) was over 100 µM. The TGI (SNB-75 CNS) was over 100 µM, the TGI (EKVX NSCLC) was over 100 µM and the TGI (SNB-19 CNS) was over 100 µM. For the same compound, the TGI (SF-295 CNS) was over 100 µM, the TGI (IGROV1 ovarian) was over 100 µM and the TGI (M19-MEL melanoma) was over 100 µM. It also gave a TGI (A549 NSCLC) of over 100 µM.
